# Experimental data published in article PMC3273640 (Journal of Molecular Biology, 2011).
# Assay: CD measurements of folding in water/TFE mixtures
# Assay type: physicochemical
# Settings: CD in water/TFE mixtures (>= 2 M TFE), fit with Eq. S11
row,folding free energy,Substance
1,4.8 ± 0.2 kcal/mol,Ac-CGWWLALALALALALALALALALALWWA-NH2 [WALP27]
2,4.6 ± 0.2 kcal/mol,Ac-CGWWLALALALALALALALALWWA-NH2 [WALP23]
